Consider 26 compounds from patent publication US20100068197A1, “PHARMACEUTICAL COMPOUNDS AS INHIBITORS OF CELL PROLIFERATION AND THE USE THEREOF” (Myriad Pharmaceuticals, Inc., priority 2008, published 2010).

Experiment [1] relates to P388 murine leukemia cell line. Description: P388 cytotoxicity, cellular viability by ATP-Lite. Type of experiment: cell-based. The settings on record: compound concentration required to inhibit growth by 50%, intracellular ATP. As for the experimental part:
A P388 murine leukemia cell line was obtained from NCI, Frederick, Md. P388 cells were cultured in RPMI-1640 supplemented with 10% fetal bovine serum, 2 mM Glutamax, 1 mM sodium pyruvate, 0.1 mM non-essential amino acids and 10 mM HEPES. Cells were grown at 37° C. in a humidified 5% CO2 atmosphere. Exponentially growing P388 cells were plated at 5,000 cells/well in a 96-well flat-bottomed microtiter plate (Corning, Costar #3595). […] Cellular viability was determined 72 hours later by measuring intracellular ATP with ATP-Lite assay system. The effect of compounds on cell viability was calculated by comparing the ATP levels of cells exposed to test compound with those of cells exposed to DMSO. A semi-log plot of relative ATP levels versus compound concentration was used to calculate the compound concentration required to inhibit growth by 50% (IC50). Data was analyzed by Prism software (GraphPad; San Diego, Calif.) by fitting it to a sigmoidal dose response curve.

Experiment [2] relates to P388/ADR cell lines (overexpress the multidrug resistance pump MDR-1). Description: Multidrug resistant cell assay, cell viability by ATP-lite. Type of experiment: cell-based, murine. An excerpt:
Cytotoxicity of compounds in multidrug resistant cells can be determined by administering compounds to cell lines that overexpress the multidrug resistance pump MDR-1 and determining the viability of the cell lines. P388/ADR cell lines are known to overexpress the multidrug resistance pump MDR-1 (also known as P-glycoprotein-1; Pgp-1).
P388/ADR cell lines are obtained from American Type Culture Collection (Manassas, Va.) and maintained in RPMI-1640 media supplemented with 10% FCS, 10 units/mL penicillin and streptomycin, 2 mM Glutamax and 1 mM sodium pyruvate (Invitrogen Corporation, Carlsbad, Calif.). For compound testing, cells are plated in 96 well dishes at a concentration of 1.5×10^4 cells/well. Cells are allowed to adhere to the plate overnight and then incubated with compounds at final concentrations ranging from 0.13 nM to 10 μM for 72 hours. Cell viability is then assessed using the ATP-lite reagent (Perkin Elmer, Foster City, Calif.). Plates are read on a Wallac Topcount luminescence reader (Perkin Elmer, Foster City, Calif.) and the results graphed in Prism software (Graphpad Software, Inc., San Diego, Calif.). Non-linear regression with variable slope analysis is performed to obtain IC50 concentration values.

The mark [3] stands for this setting: Mus musculus, 72 h, multidrug resistant cells overexpressing MDR-1.
Where [4] appears, read: multidrug resistant cells overexpressing MDR-1, 72 hours.

A word on the IC50: it is the concentration needed to halve the response being measured. Lower therefore signals greater potency. On to `COCCOCCOc1nc(N(C)c2ccc(OC)cc2)c2ccccc2n1` [Example 1, {2-[2-(2-Methoxy-ethoxy)-ethoxy]-quinazolin-4-yl}-(4-methoxy-phenyl)-methyl-amine], for which the IC50 in experiment [1] (Mus musculus, P388, 72 h) stood at 490 nM; in experiment [2] (setting [3]), 580 nM.

Turning to `COCCOCCOCCOc1nc(N(C)c2ccc(OC)cc2)c2ccccc2n1` [Example 2, (2-{2-[2-(2-Methoxy-ethoxy)-ethoxy]-ethoxy}-quinazolin-4-yl)-(4-methoxy-phenyl)-methyl-amine], the 50% inhibitory concentration (IC50) is 65 nM in experiment [1] (Mus musculus, P388, 72 h) and 74 nM in experiment [2] (setting [3]).

For `COc1ccc(N(C)c2nc(NCCOCCOCCN)nc3ccccc23)cc1` [Example 3, N^2-{2-[2-(2-Amino-ethoxy)-ethoxy]-ethyl}-N^4-(4-methoxy-phenyl)-N^4-methyl-quinazoline-2,4-diamine], the IC50 amounted to 1400 nM in experiment [1] (Mus musculus, P388, 72 h) and 2000 nM in experiment [2] (setting [3]).

For `COc1ccc(N(C)c2nc(NCCNCCNCCN)nc3ccccc23)cc1` [Example 4, N^2-{2-[2-(2-Amino-ethylamino)-ethylamino]-ethyl}-N^4-(4-methoxy-phenyl)-N^4-methyl-quinazoline-2,4-diamine], the concentration for half-maximal inhibition (IC50) in experiment [1] (Mus musculus, P388, 72 h) worked out at 550 nM; in experiment [2] (setting [3]), 530 nM.

In experiment [1] (Mus musculus, P388, 72 h), `COc1ccc(N(C)c2nc(OCCN3CCN(CCO)CC3)nc3ccccc23)cc1` [Example 5, 2-[4-(2-{4-[(4-Methoxy-phenyl)-methyl-amino]-quinazolin-2-yloxy}-ethyl)-piperazin-1-yl]-ethanol] came in with a half-maximal inhibitory concentration (IC50) of 3600 nM.

Take `CCOC(=O)C1C=CC(C)n2c(=O)n(CCNc3nc(N(C)c4ccc(OC)cc4)c4ccccc4n3)c(=O)n21` (stereo not shown) [Example 6, 2-(2-{4-[(4-Methoxy-phenyl)-methyl-amino]-quinazolin-2-ylamino}-ethyl)-8-methyl-1,3-dioxo-2,3,5,8-tetrahydro-1H-[1,2,4]triazolo[1,2-a]pyridazine-5-carboxylic acid ethyl ester]: the IC50 stood at 3000 nM in experiment [1] (Mus musculus, P388, 72 h) and 3500 nM in experiment [2] (setting [3]).

`CCOCCOCCOCCOc1nc(N(C)c2ccc(OC)cc2)c2ccccc2n1` [Example 7, (2-{2-[2-(2-Ethoxy-ethoxy)-ethoxy]-ethoxy}-quinazolin-4-yl)-(4-methoxy-phenyl)-methyl-amine]: the IC50 was 1400 nM in experiment [1] (Mus musculus, P388, 72 h) and 520 nM in experiment [2] (setting [3]).

Regarding `COCCOCCOC(=O)OCCNc1nc(N(C)c2ccc(OC)cc2)c2ccccc2n1` [Example 8, Carbonic acid 2-(2-methoxy-ethoxy)-ethyl ester 2-{4-[(4-methoxy-phenyl)-methyl-amino]-quinazolin-2-ylamino}-ethyl ester], the concentration for half-maximal inhibition (IC50) in experiment [1] (Mus musculus, P388, 72 h) amounted to 25 nM; in experiment [2] (setting [3]), 30 nM.

Take `COc1ccc(N(C)c2nc(N3CCNCC3)nc3ccccc23)cc1` [Example 9, (4-Methoxy-phenyl)-methyl-(2-piperazin-1-yl-quinazolin-4-yl)-amine]: the IC50 in experiment [1] (Mus musculus, P388, 72 h) came out at 2600 nM; in experiment [2] (setting [3]), 3200 nM.

As for `COc1ccc(N(C)c2nc(NCCOP(=O)(OC(C)(C)C)OC(C)(C)C)nc3ccccc23)cc1` [Example 10, Phosphoric acid di-tent-butyl ester 2-{4-[(4-methoxy-phenyl)-methyl-amino]-quinazolin-2-ylamino}-ethyl ester], in experiment [2] (setting [3]), the half-maximal inhibitory concentration (IC50) came out at 380 nM.

On to `COc1ccc(N(C)c2nc(NCCOP(=O)(O)OC(C)(C)C)nc3ccccc23)cc1` [Example 12, Phosphoric acid tent-butyl ester 2-{4-[(4-methoxy-phenyl)-methyl-amino]-quinazolin-2-ylamino}-ethyl ester], for which the IC50 in experiment [1] (Mus musculus, P388, 72 h) stood at 3100 nM; in experiment [2] (setting [3]), 7800 nM.

In the case of `COc1ccc(N(C)c2nc(NCCOC(=O)CN)nc3ccccc23)cc1` [Example 13, Amino-acetic acid 2-{4-[(4-methoxy-phenyl)-methyl-amino]-quinazolin-2-ylamino}-ethyl ester], the IC50 in experiment [1] (Mus musculus, P388, 72 h) turned out to be 15 nM; in experiment [2] (setting [3]), 18 nM.

`COc1ccc(N(C)c2nc(NCCNC(=O)OC(C)(C)C)nc3ccccc23)cc1OC` [Example 14, (2-{4-[(3,4-Dimethoxy-phenyl)-methyl-amino]-quinazolin-2-ylamino}-ethyl)-carbamic acid tert-butyl ester]: the IC50 stood at 300 nM in experiment [1] (Mus musculus, P388, 72 h); 340 nM in experiment [1] (72 hours); 340 nM in experiment [2] (setting [3]); 350 nM in experiment [2] (setting [4]).

On to `COc1ccc(N(C)c2nc(NCCOC(=O)[C@H](N)CCCCN)nc3ccccc23)cc1` [Example 15, (R)-2,6-Diamino-hexanoic acid 2-{4-[(4-methoxy-phenyl)-methyl-amino]-quinazolin-2-ylamino}-ethyl ester], for which the IC50 in experiment [1] (Mus musculus, P388, 72 h) was determined as 11 nM; in experiment [1] (72 hours), 15 nM; in experiment [2] (setting [3]) it was 33 nM; in experiment [2] (setting [4]) it was 22 nM.

Take `COc1ccc(N(C)c2nc(NCCNC(=O)OC(C)(C)C)nc3ccc(OC)cc23)cc1` [Example 16, (2-{6-Methoxy-4-[(4-methoxy-phenyl)-methyl-amino]-quinazolin-2-ylamino}-ethyl)-carbamic acid tent-butyl ester]: the IC50 in experiment [1] (Mus musculus, P388, 72 h) turned out to be 4000 nM; in experiment [1] (72 hours), 2400 nM; in experiment [2] (setting [3]), 3400 nM; in experiment [2] (setting [4]), 2000 nM.

Regarding `COc1ccc(N(C)c2nc(NCCNC(=O)OCc3ccccc3)nc3ccc(OC)cc23)cc1` [Example 17, (2-{6-Methoxy-4-[(4-methoxy-phenyl)-methyl-amino]-quinazolin-2-ylamino}-ethyl)-carbamic acid benzyl ester], the half-inhibitory concentration (IC50) in experiment [1] (Mus musculus, P388, 72 h) came out at 4500 nM; in experiment [1] (72 hours) it was 3000 nM; in experiment [2] (setting [3]) it was 8500 nM.

Take `COc1ccc(N(C)c2nc(NCCNC(C)=O)nc3ccc(C)cc23)cc1` [Example 18, N-(2-{4-[(4-Methoxy-phenyl)-methyl-amino]-6-methyl-quinazolin-2-ylamino}-ethyl)-acetamide]: the IC50 in experiment [2] (setting [3]) came out at 2500 nM; in experiment [2] (setting [4]), 1400 nM.

In the case of `COc1ccc(N(C)c2nc(NCCNC(C)=O)nc3ccccc23)cc1OC` [Example 20, N-(2-{4-[(3,4-Dimethoxy-phenyl)-methyl-amino]-quinazolin-2-ylamino}-ethyl)-acetamide], the IC50 was found to be 1700 nM in experiment [1] (Mus musculus, P388, 72 h); 1100 nM in experiment [1] (72 hours); 9400 nM in experiment [2] (setting [3]).

In the case of `COC(=O)NCCNc1nc(N(C)c2ccc(OC)c(OC)c2)c2ccccc2n1` [Example 21, (2-{4-[(3,4-Dimethoxy-phenyl)-methyl-amino]-quinazolin-2-ylamino}-ethyl)-carbamic acid methyl ester], the half-inhibitory concentration (IC50) worked out at 120 nM in experiment [1] (Mus musculus, P388, 72 h); 64 nM in experiment [1] (72 hours); 190 nM in experiment [2] (setting [3]); 150 nM in experiment [2] (setting [4]).

Compound `COc1ccc(N(C)c2nc(NCCNC(N)=O)nc3ccc(OC)cc23)cc1` [Example 22, (2-{6-Methoxy-4-[(4-methoxy-phenyl)-methyl-amino]-quinazolin-2-ylamino}-ethyl)-urea] registered an IC50 in experiment [1] (Mus musculus, P388, 72 h) of 9300 nM.

Regarding `COc1ccc(N(C)c2nc(N[C@@H](CO)c3ccccc3)nc3ccccc23)cc1` [Example 23, (R)-2-{4-[(4-Methoxy-phenyl)-methyl-amino]-quinazolin-2-ylamino}-2-phenyl-ethanol], the half-inhibitory concentration (IC50) came to 4600 nM in experiment [1] (Mus musculus, P388, 72 h) and 3300 nM in experiment [2] (setting [3]).

For `COc1ccc(N(C)c2nc(N[C@@H](C)[C@H](O)c3ccccc3)nc3ccccc23)cc1` [Example 24, (1R,2S)-2-{4-[(4-Methoxy-phenyl)-methyl-amino]-quinazolin-2-ylamino}-1-phenyl-propan-1-ol], the IC50 was determined as 1600 nM in experiment [1] (Mus musculus, P388, 72 h) and 1700 nM in experiment [2] (setting [3]).

Turning to `COc1ccc(N(C)c2nc(N[C@@H](CO)Cc3ccccc3)nc3ccccc23)cc1` [Example 25, (R)-2-{4-[(4-Methoxy-phenyl)-methyl-amino]-quinazolin-2-ylamino}-3-phenyl-propan-1-ol], the 50% inhibitory concentration (IC50) in experiment [1] (Mus musculus, P388, 72 h) was 1800 nM; in experiment [2] (setting [3]), 1800 nM.

In the case of `COC(=O)NCCNc1nc(N(C)c2ccc(OC)cc2)c2cc(OC)ccc2n1` [Example 26, (2-{6-Methoxy-4-[(4-methoxy-phenyl)-methyl-amino]-quinazolin-2-ylamino}-ethyl)-carbamic acid methyl ester], the 50% inhibitory concentration (IC50) was determined as 7200 nM in experiment [1] (Mus musculus, P388, 72 h) and 7400 nM in experiment [2] (setting [3]).

`COc1ccc(N(C)c2nc(NCCOC(=O)[C@@H](N)CCSC)nc3ccccc23)cc1` [Example 27, (S)-2-Amino-4-methylsulfanyl-butyric acid 2-{4-[(4-methoxy-phenyl)-methyl-amino]-quinazolin-2-ylamino}-ethyl ester]: the IC50 in experiment [1] (Mus musculus, P388, 72 h) amounted to 220 nM; in experiment [2] (setting [3]), 220 nM.

As for `COc1ccc(N(C)c2nc(N(CCNC(C)=O)C(C)=O)nc3ccccc23)cc1` [Example 39, N-[2-(Acetyl-{4-[(4-methoxy-phenyl)-methyl-amino]-quinazolin-2-yl}-amino)-ethyl]-acetamide], in experiment [1] (Mus musculus, P388, 72 h), the IC50 was 3800 nM.
